In patent publication US20170184612A1, “USE OF LEUKOCYTES AND NOVEL BIOMARKERS IN THE DIAGNOSIS, CONFIRMATION, AND TREATMENT OF A NEUROLOGICAL DISORDER” (The Trustees of Columbia University in the City of New York, priority 2014, published 2017):

Legend:
[1] = system: peripheral blood mononuclear cells (PBMC), T cells; experiment: ELISpot assay, IL-5 release (SFC) after stimulation with a-synuclein epitope pools; format: cell-based, human
Experimental: (§1) Blood from age matched controls and PD patients were obtained and mononuclear cells were isolated by gradient centrifugation.
(§2) Release of the cytokines gamma-interferon, which measures activation of CD4+ and/or CD8+ T cells, and the interleukin, IL-5, which measures activation of CD4+ T cells was measured by ELISpot assay. […] After 22 hours of stimulation at 37 C, the cells were removed and release of cytokines was measured by colorimetric detection of spot-forming cells (SFC). Confirmed release of cytokine is determined by the presence of a minimum of 20 SFC per million cells.
(§3) The binding algorithms in SubAim 1 predict how well the peptides would bind to MHC if present, but not if they are present in patients. To determine this, the presence of T cell response against the candidate antigens by patient blood-derived peripheral blood mononuclear cells (PBMC) is assessed by ELISPOT assays upon stimulation with the peptides. This assay detects and quantifies cytokine release (in this case, IFNγ and IL-5) from specific activated T cells.
(§4) Data were obtained from blood samples (25 ml) from 44 PD patients and 24 age-matched controls. The experiments were conducted blindly. PBMCs from these samples were isolated and exposed to pools comprising the 122 candidate class I and class II antigens and phosphorylated S129 epitopes generated in Subaim 1. For the PBMCs responsive to the pooled peptides, the response was then deconvoluted to identify individual epitopes.
(§5) PMBC fractions are recovered by standard methods with Ficoll gradient and T cells expansion (Oseroff et al., 2010). The methods for the analysis of T cell reactions and measurement of cytokines production using the enzyme-linked immunosorbent spot (ELISPOT) assay are published in analogous experiments to discover antigens in multiple sclerosis (Lolli et al., 2013) and in hay fever allergens (Oseroff et al., 2010). T cell responses are determined by measuring IFNγ and IL-5 release by ELISPOT. Statistical analysis of differences between populations is expected to be non-parametric and analyzed with the U-Mann-Whitney test. If there were a normal distribution of response, which is a priori unlikely as some patients have no T cell response, with an SD=1, 8 patients per group would be required to provide a p>90% that the study detect a >2 fold difference at a two-sided 0.05 significance level.

[2] = system: peripheral blood mononuclear cells (PBMC), T cells; experiment: ELISpot assay, gamma-interferon release (SFC) after stimulation with a-synuclein epitope pools; format: cell-based, human; conditions: for Pool +: IFNg, Pool Stimulated, number of donors with a positive response, Donors tested 1
Experimental: as §1, §2, §3, §4, §5

[3] = Patients Summary, PD patients, of donors tested (peptide)
[4] = Patients Summary, PD patients, single peptide
[5] = number of donors positive to the single peptide, second 'Pool Stimulated' section (from r296), 12 donors tested
[6] = peptide + / donors tested (peptide), second 'Pool Stimulated' section (from r296), 12 donors tested
[7] = single peptide, second 'Pool Stimulated' section (from r296), 12 donors tested
[8] = Patients Summary, Phospho pool peptides
[9] = Patients Summary, Phospho pool peptides, 10 donors tested
[10] = peptides of pool 'Poshpho', 8 donors tested
[11] = peptides of pool 'Poshpho', 8 donors tested, number of donors positive
[12] = pool 'Phospho' (phosphorylated peptides)

Substance | IL-g Peptide + (donors positive to the peptide) [1, 3] | IL-g Response Frequency [1, 4] | IL-g Total SFC [1, 4] | IL-g Peptide + [1, 5] | IL-g Response Frequency [1, 6] | IL-g Total SFC [1, 7] | Pool + [2] | IFNg Peptide + (donors positive to the peptide) [2, 3] | IFNg Avg SFC [2, 4] | IFNg Response Frequency [2, 4] | IFNg Total SFC [2, 4] | IFNg Peptide + [2, 5] | IFNg Response Frequency [2, 6] | IFNg Total SFC [2, 7] | also measured
3521.0021 (PGKTKEGVL; listed as Homo sapiens) | 0 | 0% | 0 SFC | 0 | 0% | 0 SFC | 0 | 1 | 36 SFC | 13% | 36 SFC | 0 | 0% | 0 SFC | –
3521.0051 (EEGAPQEGIL; listed as Homo sapiens) | 0 | 0% | 0 SFC | 1 | 50% | 1028 SFC | 1 | 1 | 427 SFC | 25% | 427 SFC | 1 | 50% | 554 SFC | IL-g Avg SFC [1, 7]: 1028 SFC; IFNg Avg SFC [2, 7]: 554 SFC
3521.0028 (MPSEEGYQDY; listed as Homo sapiens) | 0 | 0% | 0 SFC | 0 | 0% | 0 SFC | 0 | 0 | – | 0% | 0 SFC | 0 | 0% | – | IL-g Avg SFC [1, 8]: 350 SFC; IL-g Response Frequency [1, 8]: 20%; IL-g Total SFC [1, 8]: 700.3 SFC; IL-g Peptide + (donors positive to the peptide) [1, 9]: 2; IL-g Avg SFC [1, 10]: 113 SFC; IL-g Response Frequency [1, 10]: 13%; IL-g Total SFC [1, 10]: 113 SFC; IL-g Peptide + [1, 11]: 1; Pool + [2, 12]: 1; IFNg Avg SFC [2, 8]: 420 SFC; IFNg Response Frequency [2, 8]: 30%; IFNg Total SFC [2, 8]: 1260 SFC; IFNg Peptide + (donors positive to the peptide) [2, 9]: 3; IFNg Avg SFC [2, 10]: 40 SFC; IFNg Response Frequency [2, 10]: 13%; IFNg Total SFC [2, 10]: 40 SFC; IFNg Peptide + [2, 11]: 1
3521.0045 (KTKKGVVHGV; listed as Homo sapiens) | 0 | 0% | 0 SFC | – | – | – | – | 1 | 133 SFC | 17% | 133 SFC | – | – | – | –
3521.0007 (AAATGFVKK; listed as Homo sapiens) | 0 | 0% | 0 SFC | 0 | 0% | 0 SFC | 0 | 0 | – | 0% | 0 SFC | 0 | 0% | 0 SFC | –
3521.002 (AGKTKEGVL; listed as Homo sapiens) | 1 | 13% | 106 SFC | 0 | 0% | 0 SFC | 0 | 1 | 98 SFC | 13% | 98 SFC | 0 | 0% | 0 SFC | IL-g Avg SFC [1, 4]: 106 SFC
3521.0054 (MPVDPDNEAY; listed as Homo sapiens) | 0 | 0% | 0 SFC | 1 | 50% | 58 SFC | 0 | 0 | – | 0% | 0 SFC | 0 | 0% | – | IL-g Avg SFC [1, 7]: 58 SFC
3521.0073 (TTVAEKTKEQVTNVG; listed as Homo sapiens) | 0 | 0% | 0 SFC | 0 | 0% | 0 SFC | 1 | 0 | – | 0% | 0 SFC | 0 | 0% | 0 SFC | –
3521.0042 (AGKTKEGVLY; listed as Homo sapiens) | 0 | 0% | 0 SFC | 0 | 0% | 0 SFC | 0 | 1 | 31 SFC | 13% | 31 SFC | 0 | 0% | 0 SFC | –
3521.0014 (KTVEGAGSI; listed as Homo sapiens) | 0 | 0% | 0 SFC | 0 | 0% | 0 SFC | 0 | 0 | – | 0% | 0 SFC | 0 | 0% | 0 SFC | –
3521.0059 (AEAAGKTKEG; listed as Homo sapiens) | 1 | 13% | 71 SFC | 0 | 0% | 0 SFC | 1 | 0 | – | 0% | 0 SFC | 1 | 50% | 120 SFC | IL-g Avg SFC [1, 4]: 71 SFC; IFNg Avg SFC [2, 7]: 120 SFC
3521.0057 (NEEGAPQEGI; listed as Homo sapiens) | 0 | 0% | 0 SFC | 0 | 0% | 0 SFC | 0 | 0 | – | 0% | 0 SFC | 1 | 50% | 26.7 SFC | IFNg Avg SFC [2, 7]: 26.7 SFC
3521.006 (VATVAEKTKE; listed as Homo sapiens) | 0 | 0% | 0 SFC | 0 | 0% | 0 SFC | 1 | 0 | – | 0% | 0 SFC | 0 | 0% | 0 SFC | –
3521.0038 (EMPSEEGYQD; listed as Homo sapiens) | 0 | 0% | 0 SFC | – | – | – | 0 | 0 | – | 0% | 0 SFC | – | – | – | IL-g Avg SFC [1, 8]: 620 SFC; IL-g Response Frequency [1, 8]: 10%; IL-g Total SFC [1, 8]: 620 SFC; IL-g Peptide + (donors positive to the peptide) [1, 9]: 1; IL-g Avg SFC [1, 10]: 33 SFC; IL-g Response Frequency [1, 10]: 13%; IL-g Total SFC [1, 10]: 33 SFC; IL-g Peptide + [1, 11]: 1; Pool + [2, 12]: 1; IFNg Avg SFC [2, 8]: 502 SFC; IFNg Response Frequency [2, 8]: 30%; IFNg Total SFC [2, 8]: 1507 SFC; IFNg Peptide + (donors positive to the peptide) [2, 9]: 3; IFNg Avg SFC [2, 10]: 40 SFC; IFNg Response Frequency [2, 10]: 13%; IFNg Total SFC [2, 10]: 40 SFC; IFNg Peptide + [2, 11]: 1
